According to patent US20220388979A1, “QUINOLINE DERIVATIVES AS PROTEIN KINASE INHIBITORS” (B.C.I. PHARMA, priority 2019, published 2022):
Where two headings read alike, the source gives them in different places. Each block holds one molecule with its values, some of them ahead of it.

Tests used:
M-NFS-60 cells = assay: Cell proliferation in M-NFS-60 leukemia cell line (WST-1); assay type: cell-based; conditions: for IC50: cell proliferation, 72 h, WST-1, read-out: M-NFS-60 IC 50
Description: M-NFS-60: Exponential growing M-NFS-60 cells (ATCC, CRL-1838) were seeded at […]per 200 μl of complete medium with beta-mercaptoethanol and M-CSF (62 ng/mL) or IL34 (500 ng/mL). Twenty μL of test compound dilution were added to each well and the plates were incubated for 72 h at 37° C., 5% CO2. Untreated cells and positive control (0.5% triton X-100, for the last 15 min) served as reference for maximum and minimum viability. At the end of incubation 100 μl of supernatant were removed and replaced by 10 μl of WST-1 solution (Cell Proliferation Reagent WST-1, Roche Applied Science). After 3 h incubation at 37° C., 5% CO2, optical densities were measured at 450 nm and 620 nm for the background on microplate reader (Envision 2105, Perkinelmer).
(§1) IC50 were measured and experiments were performed at least in duplicate.
(§2) Cell-based assays of compounds CC395-CC397, depicted above, against M-NFS-60 and HEK-CSF1R have been performed following the procedures described in example 29 and 30 and compared with their quinoline analogues 32, 44 and 108.

CSF1R [1] = target: T1, CSF1R (Homo sapiens, UniProt P07333); assay: HEK-CSF1R-STAT5-Luc reporter assay, M-CSF stimulated; assay type: cell-based; parameters: host or cells: HEK293T (ATCC CRL-3216); conditions: for IC50: 600 ng/ml M-CSF, 24 h, luciferase, read-out: HEK-CSF1R-STAT5 IC 50
Description: HEK-CSF1R-STAT5-Luc: Exponential growing HEK293T cells (ATCC® CRL-3216™), ectopically expressing human CSF1R receptor (Origene) and five copies of a STAT5 response element (STAT5 RE, promega) that drives transcription of the luciferase reporter were seeded at 5·10^3 per 20 μl of complete DMEM medium. The next day, 2.25 μL of test compound dilution were added to each well and stimulated with 600 ng/ml of M-CSF. The plates were incubated for 24 h at 37° C., 5% CO2. Unstimulated and stimulated cells served as reference for […]. At the end of incubation 25 μl of Steady-Glo® Luciferase Assay System (Promega) were added after 5 min of lysis, luminescence was measured on microplate reader (Envision 2105, Perkinelmer).
as §1, §2

CSF1R [2] = target: T1, CSF1R; assay: Z'-Lyte biochemical kinase assay (SelectScreen), CSF1R; conditions: at 50 nM, in duplicate
Description: (§3) A biochemical assay was performed in order to measure the protein kinase inhibition. The kinase binding assays were performed against different kinases using the SelectScreen Biochemical Kinase Profiling Service® platform (Thermo Fisher Scientific). For all kinases, the Z′-Lyte® biochemical kinase assay technology was used. Inhibitions were measured at 50 nM in duplicate for each compound and are reported in percentage.

FLT3 = target: T2, FLT3 (Homo sapiens, UniProt P36888); assay: Z'-Lyte biochemical kinase assay (SelectScreen), FLT3; conditions: at 50 nM, in duplicate
T2 sequence (P36888 27-993): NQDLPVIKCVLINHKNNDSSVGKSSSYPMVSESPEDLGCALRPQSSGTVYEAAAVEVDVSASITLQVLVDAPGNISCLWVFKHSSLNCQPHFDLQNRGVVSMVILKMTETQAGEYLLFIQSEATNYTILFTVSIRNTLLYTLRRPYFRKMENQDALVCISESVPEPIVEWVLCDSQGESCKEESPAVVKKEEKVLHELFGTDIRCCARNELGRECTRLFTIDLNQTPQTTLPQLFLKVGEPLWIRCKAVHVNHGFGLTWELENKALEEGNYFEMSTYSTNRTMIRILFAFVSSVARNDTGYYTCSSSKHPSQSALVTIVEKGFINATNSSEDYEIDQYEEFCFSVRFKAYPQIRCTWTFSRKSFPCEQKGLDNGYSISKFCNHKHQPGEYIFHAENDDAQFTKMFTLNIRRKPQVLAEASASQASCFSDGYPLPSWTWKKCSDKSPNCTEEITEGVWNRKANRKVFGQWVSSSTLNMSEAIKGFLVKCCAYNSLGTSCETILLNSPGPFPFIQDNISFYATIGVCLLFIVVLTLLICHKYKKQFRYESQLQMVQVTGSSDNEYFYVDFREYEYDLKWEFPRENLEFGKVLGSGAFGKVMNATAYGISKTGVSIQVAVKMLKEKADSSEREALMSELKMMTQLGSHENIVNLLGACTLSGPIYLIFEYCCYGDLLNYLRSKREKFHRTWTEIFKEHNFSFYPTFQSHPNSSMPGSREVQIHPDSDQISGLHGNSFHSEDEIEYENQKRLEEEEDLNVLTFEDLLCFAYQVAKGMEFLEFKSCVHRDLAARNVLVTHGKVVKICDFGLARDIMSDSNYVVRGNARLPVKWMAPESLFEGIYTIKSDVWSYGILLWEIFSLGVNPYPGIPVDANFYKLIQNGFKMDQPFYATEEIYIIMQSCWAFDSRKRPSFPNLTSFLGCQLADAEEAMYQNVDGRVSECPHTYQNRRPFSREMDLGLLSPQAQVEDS
Description: as §3

Kit = Kit (Homo sapiens, UniProt P10721); assay: Z'-Lyte biochemical kinase assay (SelectScreen), Kit; conditions: at 50 nM, in duplicate
Description: as §3

PDGFRA = PDGFRA (Homo sapiens, UniProt P16234); assay: Z'-Lyte biochemical kinase assay (SelectScreen), PDGFRA; conditions: at 50 nM, in duplicate
Description: as §3

PDGFRB = PDGFRB (Homo sapiens, UniProt P09619); assay: Z'-Lyte biochemical kinase assay (SelectScreen), PDGFRB; conditions: at 50 nM, in duplicate
Description: as §3

[3] = 32 vs CC395, 44 vs CC396, 108 vs CC397

Chain of PDGFRA (P16234 24-1089): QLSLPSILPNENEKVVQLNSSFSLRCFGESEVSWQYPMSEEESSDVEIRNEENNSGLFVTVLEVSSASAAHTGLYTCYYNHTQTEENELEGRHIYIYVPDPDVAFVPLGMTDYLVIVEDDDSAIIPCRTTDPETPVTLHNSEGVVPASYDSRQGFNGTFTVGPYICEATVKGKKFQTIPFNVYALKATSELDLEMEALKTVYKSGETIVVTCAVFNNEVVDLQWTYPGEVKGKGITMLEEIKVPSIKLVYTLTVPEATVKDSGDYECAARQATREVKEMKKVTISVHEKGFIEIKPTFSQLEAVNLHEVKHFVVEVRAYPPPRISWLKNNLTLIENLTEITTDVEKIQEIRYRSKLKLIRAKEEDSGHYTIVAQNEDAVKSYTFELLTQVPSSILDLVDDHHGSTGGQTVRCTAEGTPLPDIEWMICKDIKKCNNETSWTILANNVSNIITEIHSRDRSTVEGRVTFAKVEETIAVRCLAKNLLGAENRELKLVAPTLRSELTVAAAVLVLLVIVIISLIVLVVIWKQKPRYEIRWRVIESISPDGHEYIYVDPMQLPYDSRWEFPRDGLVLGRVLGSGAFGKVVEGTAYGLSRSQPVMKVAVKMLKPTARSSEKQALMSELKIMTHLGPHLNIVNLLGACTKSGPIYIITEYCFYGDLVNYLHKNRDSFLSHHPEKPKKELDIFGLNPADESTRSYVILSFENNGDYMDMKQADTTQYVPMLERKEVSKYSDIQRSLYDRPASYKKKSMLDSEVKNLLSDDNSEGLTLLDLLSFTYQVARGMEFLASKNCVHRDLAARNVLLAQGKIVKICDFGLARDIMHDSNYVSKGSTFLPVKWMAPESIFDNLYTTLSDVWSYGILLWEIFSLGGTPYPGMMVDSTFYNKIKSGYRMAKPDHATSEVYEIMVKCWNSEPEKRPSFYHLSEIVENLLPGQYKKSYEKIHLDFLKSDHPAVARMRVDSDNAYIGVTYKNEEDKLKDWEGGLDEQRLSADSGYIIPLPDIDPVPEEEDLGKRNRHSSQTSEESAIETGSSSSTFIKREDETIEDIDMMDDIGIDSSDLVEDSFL
T1 sequence (P07333 20-972): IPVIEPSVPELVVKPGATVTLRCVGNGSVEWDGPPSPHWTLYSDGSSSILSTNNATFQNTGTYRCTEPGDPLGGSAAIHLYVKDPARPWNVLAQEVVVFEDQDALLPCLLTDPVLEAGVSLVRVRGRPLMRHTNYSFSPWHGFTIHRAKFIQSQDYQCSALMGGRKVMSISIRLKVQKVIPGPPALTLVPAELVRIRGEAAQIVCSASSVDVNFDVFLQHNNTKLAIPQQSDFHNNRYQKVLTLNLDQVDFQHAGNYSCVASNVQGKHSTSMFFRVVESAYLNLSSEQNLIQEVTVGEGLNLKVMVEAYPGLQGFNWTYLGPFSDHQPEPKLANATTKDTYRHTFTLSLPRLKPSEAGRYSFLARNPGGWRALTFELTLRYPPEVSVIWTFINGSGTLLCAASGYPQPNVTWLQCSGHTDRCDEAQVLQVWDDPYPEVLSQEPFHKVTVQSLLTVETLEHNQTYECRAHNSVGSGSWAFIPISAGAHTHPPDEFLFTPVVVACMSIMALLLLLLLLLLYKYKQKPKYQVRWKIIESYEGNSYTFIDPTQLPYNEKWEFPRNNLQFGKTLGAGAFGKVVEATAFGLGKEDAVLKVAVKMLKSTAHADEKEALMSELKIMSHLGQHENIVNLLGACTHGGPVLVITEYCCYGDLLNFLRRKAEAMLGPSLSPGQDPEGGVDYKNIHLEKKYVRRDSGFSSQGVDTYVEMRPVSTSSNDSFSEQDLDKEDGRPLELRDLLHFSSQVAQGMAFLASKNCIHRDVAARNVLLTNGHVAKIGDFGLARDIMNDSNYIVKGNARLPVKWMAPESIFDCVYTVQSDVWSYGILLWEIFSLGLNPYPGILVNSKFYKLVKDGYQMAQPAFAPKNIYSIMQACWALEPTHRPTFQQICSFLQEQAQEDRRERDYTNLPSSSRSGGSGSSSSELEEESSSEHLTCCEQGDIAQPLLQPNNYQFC
Chain of Kit (P10721 26-976): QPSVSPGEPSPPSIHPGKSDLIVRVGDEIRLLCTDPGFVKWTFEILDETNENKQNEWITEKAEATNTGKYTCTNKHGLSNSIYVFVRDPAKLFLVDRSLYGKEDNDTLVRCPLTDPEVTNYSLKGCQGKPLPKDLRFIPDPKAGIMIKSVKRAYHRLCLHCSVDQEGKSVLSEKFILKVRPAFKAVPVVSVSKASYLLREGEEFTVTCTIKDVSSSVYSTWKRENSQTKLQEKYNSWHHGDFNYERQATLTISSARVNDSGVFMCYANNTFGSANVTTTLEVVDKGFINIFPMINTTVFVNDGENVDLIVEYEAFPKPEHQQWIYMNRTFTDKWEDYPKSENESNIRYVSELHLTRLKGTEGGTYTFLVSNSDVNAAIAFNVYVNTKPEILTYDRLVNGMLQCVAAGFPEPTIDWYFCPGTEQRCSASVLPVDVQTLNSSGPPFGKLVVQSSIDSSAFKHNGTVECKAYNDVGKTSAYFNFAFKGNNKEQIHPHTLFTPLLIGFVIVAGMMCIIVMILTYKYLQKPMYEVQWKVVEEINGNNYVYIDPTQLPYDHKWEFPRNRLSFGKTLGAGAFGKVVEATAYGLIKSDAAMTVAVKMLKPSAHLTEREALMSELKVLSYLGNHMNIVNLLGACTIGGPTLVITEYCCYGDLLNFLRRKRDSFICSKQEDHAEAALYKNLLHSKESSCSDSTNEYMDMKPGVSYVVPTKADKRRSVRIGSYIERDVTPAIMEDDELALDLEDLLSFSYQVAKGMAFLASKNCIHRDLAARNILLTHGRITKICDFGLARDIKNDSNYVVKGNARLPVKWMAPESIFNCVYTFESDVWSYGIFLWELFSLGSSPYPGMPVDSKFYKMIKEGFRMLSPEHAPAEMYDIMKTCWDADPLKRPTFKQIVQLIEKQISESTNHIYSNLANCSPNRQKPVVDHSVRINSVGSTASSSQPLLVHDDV
Chain of PDGFRB (P09619 33-1106): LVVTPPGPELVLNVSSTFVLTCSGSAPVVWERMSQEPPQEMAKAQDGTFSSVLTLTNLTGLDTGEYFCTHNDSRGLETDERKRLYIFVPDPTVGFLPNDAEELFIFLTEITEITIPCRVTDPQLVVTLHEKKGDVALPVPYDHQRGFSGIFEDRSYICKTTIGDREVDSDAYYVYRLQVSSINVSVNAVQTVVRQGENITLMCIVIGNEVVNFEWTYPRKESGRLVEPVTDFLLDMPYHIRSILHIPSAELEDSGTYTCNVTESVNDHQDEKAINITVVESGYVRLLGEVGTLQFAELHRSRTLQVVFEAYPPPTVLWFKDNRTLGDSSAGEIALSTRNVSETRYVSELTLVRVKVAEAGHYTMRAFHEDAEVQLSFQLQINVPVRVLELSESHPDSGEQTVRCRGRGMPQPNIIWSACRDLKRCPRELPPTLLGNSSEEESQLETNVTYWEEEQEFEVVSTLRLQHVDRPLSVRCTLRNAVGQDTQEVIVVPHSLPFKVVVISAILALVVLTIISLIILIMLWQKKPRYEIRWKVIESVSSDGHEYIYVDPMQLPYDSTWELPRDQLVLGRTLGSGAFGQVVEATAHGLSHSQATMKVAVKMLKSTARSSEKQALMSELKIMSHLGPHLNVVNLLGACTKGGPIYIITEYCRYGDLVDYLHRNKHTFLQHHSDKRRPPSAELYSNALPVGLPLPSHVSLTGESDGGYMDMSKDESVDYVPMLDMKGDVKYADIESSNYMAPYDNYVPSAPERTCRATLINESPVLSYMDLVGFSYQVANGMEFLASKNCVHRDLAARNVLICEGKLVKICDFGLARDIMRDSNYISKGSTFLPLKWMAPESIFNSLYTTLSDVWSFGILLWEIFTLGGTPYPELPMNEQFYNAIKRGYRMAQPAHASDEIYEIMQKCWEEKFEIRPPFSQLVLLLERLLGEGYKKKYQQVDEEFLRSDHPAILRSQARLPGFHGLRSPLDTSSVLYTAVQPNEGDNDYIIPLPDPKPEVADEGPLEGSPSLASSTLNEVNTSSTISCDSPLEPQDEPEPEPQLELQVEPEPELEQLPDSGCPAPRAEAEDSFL

SMILES: COc1cc2nccc(Oc3cccc(NC(=O)Cc4ccncc4)c3)c2cc1OC [CC399, reference compound]
- IC50 (M-NFS-60 cells; Table 10): 5210 nM
- IC50 (CSF1R [1]; Table 10): 3540 nM

SMILES: COc1cc2nccc(Oc3cccc(CC(=O)NCc4ccncc4)c3)c2cc1OC [CC400, reference compound]
- IC50 (M-NFS-60 cells; Table 10): 4220 nM
- IC50 (CSF1R [1]; Table 10): 2270 nM

SMILES: COc1cc2nccc(Oc3cccc(CC(=O)Nc4ccncc4)c3)c2cc1OC [CC401, reference compound]
- IC50 (M-NFS-60 cells; Table 10): 7510 nM
- IC50 (CSF1R [1]; Table 10): 3850 nM

SMILES: Cc1c(Oc2ccnc3cc(N4CCC4)ccc23)cccc1C(=O)NCc1ccncc1 [compound 150]
- inhibition at 0.05 µM (CSF1R [2]): 81%
- inhibition at 0.05 µM (FLT3): 12%
- inhibition at 0.05 µM (Kit): 3%
- inhibition at 0.05 µM (PDGFRA): 8%
- inhibition at 0.05 µM (PDGFRB): 15%

SMILES: CNc1ccc2c(Oc3cccc(C(=O)NCc4cccc(F)c4)c3C)ccnc2c1 [compound 151]
- inhibition at 0.05 µM (CSF1R [2]): 79%
- inhibition at 0.05 µM (FLT3): 0%
- inhibition at 0.05 µM (Kit): 4%
- inhibition at 0.05 µM (PDGFRA): 9%
- inhibition at 0.05 µM (PDGFRB): 21%

SMILES: Cc1c(Oc2ccnc3cc(N(C)C)ccc23)cccc1C(=O)NCc1cccc(F)c1 [compound 152]
- inhibition at 0.05 µM (CSF1R [2]): 77%
- inhibition at 0.05 µM (FLT3): 13%
- inhibition at 0.05 µM (Kit): 3%
- inhibition at 0.05 µM (PDGFRA): 10%
- inhibition at 0.05 µM (PDGFRB): 25%

SMILES: COc1cc2nccc(Oc3cccc(C(=O)NCc4ccncc4)c3)c2cc1OC [compound 398]
- IC50 (M-NFS-60 cells; Table 10): 198 nM
- fold decrease in IC50 against M-NFS-60 compared to CC399 (M-NFS-60 cells; vs CC399): 26 fold
- fold decrease in IC50 against M-NFS-60 compared to CC400 (M-NFS-60 cells; vs CC400): 21 fold
- fold decrease in IC50 against M-NFS-60 compared to CC401 (M-NFS-60 cells; vs CC401): 38 fold
- IC50 (CSF1R [1]; Table 10): 58 nM
- fold decrease in IC50 against HEK-CSF1R-STAT5 compared to CC399 (CSF1R [1]; vs CC399): 61 fold
- fold decrease in IC50 against HEK-CSF1R-STAT5 compared to CC400 (CSF1R [1]; vs CC400): 39 fold
- fold decrease in IC50 against HEK-CSF1R-STAT5 compared to CC401 (CSF1R [1]; vs CC401): 67 fold

Further lines, results first:

- IC50 (M-NFS-60 cells; Table 9): 636 nM
- IC50 (CSF1R [1]; Table 9): 926 nM
SMILES: COc1ccc2c(Oc3cccc(C(=O)NCc4ccncc4)c3C)ncnc2c1 [CC 395, 3-(7-methoxyquinazolin-4-yl)oxy-2-methyl-N-(4-pyridylmethyl)benzamide, reference compound]

- IC50 (M-NFS-60 cells; Table 9): 415 nM
- IC50 (CSF1R [1]; Table 9): 600 nM
SMILES: COc1ccc2c(Oc3cccc(C(=O)NCc4ccncc4F)c3C)ncnc2c1 [CC 396, N-[(3-fluoro-4-pyridyl)methyl]-3-(7-methoxyquinazolin-4-yl)oxy-2-methyl-benzamide, reference compound]

- IC50 (M-NFS-60 cells; Table 9): 1260 nM
- IC50 (CSF1R [1]; Table 9): 4150 nM
SMILES: Cc1c(Oc2ncnc3cc(Cl)ccc23)cccc1C(=O)NCc1ccncc1 [CC 397, 3-(7-chloroquinazolin-4-yl)oxy-2-methyl-N-(4-pyridylmethyl)benzamide, reference compound]

- IC50 (M-NFS-60 cells; Table 9): 34 nM
- IC50 (CSF1R [1]; Table 9): 26 nM
SMILES: COc1ccc2c(Oc3cccc(C(=O)NCc4ccncc4)c3C)ccnc2c1 [compound 32, 3-[(7-methoxy-4-quinolyl)oxy]-2-methyl-N-(4-pyridylmethyl)benzamide]

- fold decrease in IC50 against M-NFS-60 compared to quinazoline-based comparative compound (M-NFS-60 cells; [3]): 22 fold
- IC50 (M-NFS-60 cells; Table 9): 19 nM
- fold decrease in IC50 against HEK-CSF1R-STAT5 compared to quinazoline-based comparative compound (CSF1R [1]; [3]): 86 fold
- IC50 (CSF1R [1]; Table 9): 7 nM
SMILES: COc1ccc2c(Oc3cccc(C(=O)NCc4ccncc4F)c3C)ccnc2c1 [compound 44]

- IC50 (M-NFS-60 cells; Table 9): 58 nM
- IC50 (CSF1R [1]; Table 9): 29 nM
SMILES: Cc1c(Oc2ccnc3cc(Cl)ccc23)cccc1C(=O)NCc1ccncc1 [compound 108, 3-[(7-chloro-4-quinolyl)oxy]-2-methyl-N-(4-pyridylmethyl)benzamide]
